Values quoted from earlier work, collected in patent US11878071B2, “Product for dyeing keratinous material, containing aminosilicone, a chromophoric compound, preservative and a fatty constituent” (Henkel AG & Co. KGaA, priority 2019, dated 2024).

details: 25° C.

SMILES	solubility in water
O=S(=O)([O-])c1ccc(N=Nc2c(O)ccc3ccccc23)cc1.[Na+] [Acid Orange 7, sodium salt of 4-[(2-hydroxy-1-naphthyl)azo]benzene sulphonate]	more than 7 g/L
O=C([O-])c1c(Cl)c(Cl)c(Cl)c(Cl)c1-c1c2c(Br)cc(=O)c(Br)c-2oc2c(Br)c(O)cc(Br)c12.O=C([O-])c1c(Cl)c(Cl)c(Cl)c(Cl)c1-c1c2c(Br)cc(=O)c(Br)c-2oc2c(Br)c(O)cc(Br)c12.[Na+].[Na+] [Acid Red 92, disodium salt of 3,4,5,6-tetrachloro-2-(1,4,5,8-tetrabromo-6-hydroxy-3-oxoxanthen-9-yl)benzoic acid]	greater than 10 g/L
CCN(Cc1cccc(S(=O)(=O)[O-])c1)c1ccc(C(=C2C=CC(=[N+](CC)Cc3cccc(S(=O)(=O)[O-])c3)C=C2)c2ccccc2S(=O)(=O)[O-])cc1.[Na+].[Na+] [Acid Blue 9]	more than 20 % by weight

Further lines, results first:

solubility in water	SMILES
highly soluble in water	O=C([O-])C1=NN(c2ccc(S(=O)(=O)[O-])cc2)C(=O)C1N=Nc1ccc(S(=O)(=O)[O-])cc1.[Na+].[Na+].[Na+] (centres unmarked) [Acid Yellow 23, trisodium salt of 4,5-dihydro-5-oxo-1-(4-sulfophenyl)-4-((4-sulfophenyl)azo)-1H-pyrazole-3-carboxylic acid]
2500 µg/mL	Nc1cc(S(=O)(=O)[O-])cc2cc(S(=O)(=O)[O-])c(N=Nc3ccccc3)c(O)c12.[Na+].[Na+] [Acid Red 33, diantrium salt of 5-amino-4-hydroxy-3-(phenylazo)-naphthalene-2,7-disulphonate]
